Assay [1] deals with Leukocyte elastase (Homo sapiens). Nature of the assay: Inhibition constant (Ki) against human leukocyte elastase.
Assay [2] shares this target. Nature of the assay: Inhibition constant (Ki) when mixed with p-nitroanilide against human leukocyte elastase for the conversion of water-soluble compound to fluorescent oil-soluble compound.
In a further assay the target is Trypsin (Sus scrofa, UniProt P00761). The experiment in a line: Inhibition constant (Ki) against trypsin enzyme for the conversion of water-soluble compound to fluorescent oil-soluble compound.
Trypsin, sequence (P00761 whole entry): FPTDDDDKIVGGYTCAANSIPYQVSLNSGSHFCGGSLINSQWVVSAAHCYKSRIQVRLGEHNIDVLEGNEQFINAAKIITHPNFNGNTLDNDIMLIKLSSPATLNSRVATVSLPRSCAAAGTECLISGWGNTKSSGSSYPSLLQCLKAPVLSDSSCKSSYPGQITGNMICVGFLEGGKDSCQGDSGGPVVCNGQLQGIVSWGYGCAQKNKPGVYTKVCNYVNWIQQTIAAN

As usually defined, the Ki is the equilibrium dissociation constant of an inhibitor or competing ligand from its target. Low values mean tighter binding, high ones weaker binding. `CC(NC(=O)[C@H](C)NC(=O)c1cccc2c1Oc1c(C(=O)NC(C(=O)O)C(C)C)cccc1C2(C)C)C(=O)O` (single isomer, unassigned): the Ki was 86 µM in assay [1] and 0.128 µM in assay [2].

Take `O=C1C=CC(=O)N1c1ccccc1`: the Ki on Trypsin is roughly 800 µM.

In assay [1], `CC(C)C(NC(=O)c1cccc2c1Oc1c(C(=O)N[C@H](C(=O)O)C(C)C)cccc1C2(C)C)C(=O)O` (single isomer, unassigned) returned an inhibition constant Ki of 515 µM.

Regarding `CC(NC(=O)[C@H](C)NC(=O)c1cccc2c1Oc1c(C(=O)NC(C)C(=O)N[C@@H](C)C(=O)O)cccc1C2(C)C)C(=O)O` (single isomer, unassigned), in assay [1], the Ki stood at 248 µM.

The record behind these values is ChEMBL document CHEMBL1131831, “A rapid method to identify exo-protease inhibitors” (Bioorg Med Chem Lett, 1999).
